From patent US5132320A, “Squalene synthetase inhibitors” (Merck & Co., Inc., priority 1990, dated 1992)

Assays:
Squalene Synthetase = biological target: T1, Squalene Synthetase (Rattus norvegicus, UniProt Q02769); assay: squalene synthetase assay (rat liver microsomes, [4-14C]farnesyl-pyrophosphate); assay type: biochemical; settings: 30° C., 20 minutes, pH 7.5
T1 construct: from tissue; host or cells: liver microsomes of male Charles River CD rats fed 0.1% lovastatin for 4 days
T1 sequence (Q02769 1-416): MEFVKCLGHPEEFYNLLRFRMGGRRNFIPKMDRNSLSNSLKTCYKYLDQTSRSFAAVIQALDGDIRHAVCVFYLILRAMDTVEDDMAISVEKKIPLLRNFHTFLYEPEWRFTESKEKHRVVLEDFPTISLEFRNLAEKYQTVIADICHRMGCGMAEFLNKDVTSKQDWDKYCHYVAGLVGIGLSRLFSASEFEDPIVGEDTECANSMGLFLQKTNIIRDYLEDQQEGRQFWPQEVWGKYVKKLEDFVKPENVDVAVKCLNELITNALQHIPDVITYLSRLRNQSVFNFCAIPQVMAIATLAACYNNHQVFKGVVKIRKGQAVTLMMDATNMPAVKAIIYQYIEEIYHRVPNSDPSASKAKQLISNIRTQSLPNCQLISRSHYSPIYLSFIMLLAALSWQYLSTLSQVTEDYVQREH
Method: The intrinsic squalene synthetase inhibitory activity of representative compounds of this invention was measured by the standard in vitro protocol described below:
PREPARATION OF MICROSOMES
Male, Charles River CD rats (120 to 150 g) were fed a diet containing 0.1% lovastatin for 4 days. The livers from these rats were homogenized in 5 volumes (ml/g) of ice cold 50 mM HEPES (4-(2-hydroxyethyl)-1-piperazine-ethanesulfonic acid), 5 mM EDTA (ethylenediaminetetraacetic acid) pH 7.5 with a Potter-Elvehjem type tissue grinder. The homogenate was centrifuged twice at 20,000×g for 15 minutes at 4° C., discarding the pellet each time. The supernatant was then centrifuged at 100,000×g for 1 hour at 4° C. The resulting microsomal pellet was resuspended in a volume of the above homogenizing buffer equal to one-fifth the volume of the original homogenate. This microsomal preparation has a protein concentration of about 7 mg/ml. The microsomal suspensions were stored in aliquots at -70° C. Squalene synthetase activity in these aliquots is stable for at least several months.
Partial Purification of Prenyl Transferase
Prenyl transferase was purified to use in the enzymatic synthesis of radiolabelled farnesyl pyrophosphate. […]

Fus. oxysporum MF4014 = assay: antifungal microtiter dilution assay, filamentous fungi (MIC); assay type: cell-based; settings: Fusarium oxysporum, 42 hours, 28° C., read-out: Minimum Inhibitory Concentration
Method: The compounds are particularly active towards filamentous fungi and yeasts including Candida albicans and Crypt. neoformans. The sensitivity of filamentous fungi and yeast was determined using inhibitor dilution assays in microtiter format. The compounds were dissolved in DMSO at 2 mg/ml and serially diluted in 0.1M phosphate buffer, pH 7.0 in the microtiter dish from 100 to 0.006 μg/ml. A standardized spore suspension for testing the filamentous fungi was prepared by inoculating Antibiotic Medium #3 containing 1.5% agar with spores such that 1.5×10^3 colony forming units were added per well. The microtiter wells were filled with 50 μl of buffer containing compound and 50 μl of inoculated medium. The sensitivity of yeasts was determined by inoculating yeast nitrogen base containing 1% dextrose (YNB/G) with aliquots of an overnight yeast culture grown in Yeast Morphology (YM) media at 35° C. and diluting in YNB/G to yield a final concentration of 1.5-7.5×10^3 colony forming units/well. One hundred fifty μl of inoculated media was added per well. To test the sensitivity of yeast, compound was solubilized in 10 percent aqueous DMSO at 2.56 mg/ml. The compound was diluted serially in YNB/G from 128 to 0.06 μg/ml. The wells were filled with 150 μl of drug containing media. […]

| Structure (SMILES) | IC50 (Squalene Synthetase) | MIC (Fus. oxysporum MF4014) |
| --- | --- | --- |
| CC=CCCCCC=CCCCCC(=O)OC1C(O)C2(CCC(C)C(O)C(C)CC=Cc3ccccc3)OC(C(=O)OC)C(O)(C(=O)OC)C1(C(=O)OC)O2 (stereo not drawn) [Compound B] | 5000 nM |  |
| CC=CCCCCC=CCCCCC(=O)OC1C(O)C2(CCC(C)C(O)C(C)CC=Cc3ccccc3)OC(C(=O)O)C(O)(C(=O)O)C1(C(=O)O)O2 (stereo not drawn) [Compound A] | 5 nM | > 100 µg/mL |
